Here are results for eleven compounds from PMC12606464, “Investigating NFE2L1 activators for targeted protein aggregate clearance: a follow-up study” (RSC Medicinal Chemistry, 2025).

Molecules are shown by their SMILES. Marks after values point to notes of the source that are not given here.

The test system of one data set is HEK293 cells. Briefly: alamarBlue cytotoxicity assessment in HEK293 cells. Conditions: 16 h. The format is cell-based, human. On the procedure: Figure S2: Concentration-dependent cytotoxicity assessment of RUN compounds.
HEK293 cells were treated for 16 hours with increasing concentrations of RUN compounds (1.25 µM; 2.5 µM; 5; 7.5 and 10 µM) or DMSO (negative control). Cell viability was determined using the alamarBlue assay following the protocol of Riss.(1) Data are presented as means ± SD from three independent experiments (n = 3). Statistical analysis was done using repeated measures one-way ANOVA with Geisser–Greenhouse correction, followed by Dunnett’s multiple comparisons test. *p<0.05. Detailed results of the analysis are shown in […]
(1 picture or pasted object on this page, not shown here)
(§1) 2 Biology Experimental Procedures
(§2) Safety statement: No unexpected or unusually high safety hazards were encountered. […]
Cell lines were sourced from the ATCC (USA) and/or ECACC (UK), namely HCT116 (human colorectal carcinoma), ATCC CCL-247 (RRID:CVCL_0291), HEK-293 (human embryonic kidney), ATCC CRL-1573 (RRID:CVCL_0045), SH-SY5Y (human neuroblastoma), ATCC CRL-2266 (RRID:CVCL_0019). The characteristics of DDI2 knockout cells derived from HCT116 cells have been described previously (Sedlacek et al., 2025). All cell lines were tested for mycoplasma contamination. Most of the cell lines were cultured in Dulbecco's Modified Eagle Medium (DMEM) enriched with 10% fetal bovine serum (FBS) and 2 mM L-glutamine, under standard conditions of 37 °C with 5% CO₂. DNA transfection was performed with Lipofectamine 2000, following the manufacturer's instructions. Transgenic cells were then selected with either G418 (400 µg/mL) or hygromycin B (450 µg/mL), based on the selection marker encoded by the plasmid used. […]

A further data set has as its system NFE2L1 pathway. As to the kind of experiment: 3×PSMA4-ARE-LUC dual luciferase reporter assay in HEK293 cells. The format is cell-based, human. The conditions noted are these: Homo sapiens; 5 μM, 16 h, HEK293, luminescence relative to DMSO-treated cells; read-out: NFE2L1 activation [5 μM].
Description: In our previous work,[43] we developed a library of NFE2L1 stimulators using a cell-based luciferase reporter assay. This system was based on three tandem copies of the antioxidant response element (ARE) derived from the NFE2L1 target gene proteasome subunit alpha type-4 (3xPSMA4, PSMA4-ARE-LUC). It was designed to detect the proteasome “bounce-back” response induced by proteasome inhibitors such as MG132 or bortezomib.[22,43,45,46] The reporter assay was adapted to a 384-well format and used to evaluate a new set of RUN compounds designed around the structural framework of the RUN-47 activator. We focused on identifying compounds that increased the 3×PSMA4-ARE-LUC signal (Fig. 1A), while simultaneously assessing cytotoxicity (see the SI, Fig. S2). […] In contrast, thiourea- and urea-containing derivatives generally produced only weak to intermediate responses, rarely exceeding a fold change of 7.
Fig. 1 (A) Targeted library screening of RUN compounds using the 3×PSMA4-ARE-LUC dual reporter assay in HEK293 cells. Cells were exposed to RUN compounds (5 μM) for 16 hours, and luciferase activity was measured. Data are presented as the mean ± SD from three independent experiments (n = 3). Results are shown as a fold change in luminescence relative to DMSO-treated cells. Selected hit compounds are highlighted in distinct colours. (B) RUN-89 specifically activates the NFE2L1 pathway. The DDI2 knockout (KO) and parental (WT) HCT116 cells were transfected with the 3×PSMA4-ARE-LUC reporter and treated with 0.5 μM bortezomib (BTZ) and 5 μM RUN-89 for 16 hours. Data are presented as the Geomean ± GeoSD of three independent experiments (n = 3). Statistical analysis was performed on log2-transformed values using two-way repeated-measures ANOVA followed by Šídak's multiple comparison test. (C) RUN-89 selectively triggers downstream signaling events associated with NFE2L1 gene expression. HEK293 cells were transfected with lipid nanoparticles (LNPs) carrying siRNAs targeting NFE2L1 or NFE2L2. LNPs formulated with non-targeting siRNA served as a negative control. Following 24 hours of incubation, cells were treated with 7.5 μM RUN-89 or DMSO (vehicle) for an additional 16 hours. Expression of the proteasomal subunit gene PSMC4 was then quantified by RT-qPCR. Data are shown as the Geomean ± GeoSD from three independent biological replicates (n = 3). Log2-transformed data were analyzed using two-way repeated-measures ANOVA with the Geisser–Greenhouse correction, followed by Tukey's multiple comparison test with individual variances computed for each comparison. Additional results for NFE2L1, NFE2L2, PSMB7, and PSMD12 are presented in SI Fig. S10.
Figure S1: Concentration–response of luciferase cell-based assay (PSMA4-ARE-luc2P reporter) on treatment with RUN-81, RUN-89, and RUN-94. Concentration is plotted on the X-axis. Dose–response relationships were analyzed using a four-parameter logistic curve (4PL), or a bell-shaped dose-response curve, both with weighting 1/Y^2. Dotted lines represent 95% confidence bands. Calculated EC₅₀ values, curve parameters, and asymmetrical confidence intervals are summarized in the accompanying table . Data are presented as mean ± SD from four independent experiments (n=4).
as §1, §2
Most of the cell lines were cultured in Dulbecco's Modified Eagle Medium (DMEM) enriched with 10% fetal bovine serum (FBS) and 2 mM L-glutamine, under standard conditions of 37 °C with 5% CO₂. DNA transfection was performed with Lipofectamine 2000, following the manufacturer's instructions. Transgenic cells were then selected with either G418 (400 µg/mL) or hygromycin B (450 µg/mL), based on the selection marker encoded by the plasmid used. Cell viability was evaluated using the […]
In general terms: A reporter such as luciferase makes a cellular process visible.

[1] abbreviates: HEK293, alamarBlue, concentration not given.

`COc1ccc(/C=C2/C(=O)/C(=C/c3ccc(OC)c(OC)c3)C3CCC2N3)cc1OC` [RUN-78]: in the data set on HEK293 cells (human), the “Tox [% of ctrl.]” value is listed as 89% of ctrl. Further, the fold induction at 5 µM with NFE2L1 pathway worked out at 1.4.
For `COc1ccc(/C=C2\CC(NC(=O)Cc3c[nH]cn3)C/C(=C\c3ccc(OC)c(OC)c3)C2=O)cc1OC` (stereo not shown) [RUN-95], the “Tox [% of ctrl.]” value with HEK293 cells (setting [1]) is given as 96% of ctrl. The fold induction at 5 µM with NFE2L1 pathway was found to be 2.
The corresponding values for `COCCOCCOCC(=O)NC1C/C(=C\c2ccc(OC)c(OC)c2)C(=O)/C(=C/c2ccc(OC)c(OC)c2)C1` (stereo not shown) [RUN-88] are 86% of ctrl and 3.9.
On to `COc1ccc(/C=C2\CC(NC(=O)CN3CCOCC3)C/C(=C\c3ccc(OC)c(OC)c3)C2=O)cc1OC.O=C(O)C(F)(F)F` (stereo not shown) [RUN-98], for which the “Tox [% of ctrl.]” value with HEK293 cells (setting [1]) is reported as 102% of ctrl. Moreover, the fold induction at 5 µM with NFE2L1 pathway stood at 2.1.
In the case of `CCN(CC)CC(=O)N1C/C(=C\c2ccc(OC)c(OC)c2)C(=O)/C(=C/c2ccc(OC)c(OC)c2)C1.O=C(O)C(F)(F)F` [RUN-116], the “Tox [% of ctrl.]” value with HEK293 cells (setting [1]) is recorded as 78% of ctrl. In addition, in the data set with NFE2L1 pathway, the fold induction at 5 µM is 3.1.
With `COc1ccc(/C=C2\CN(C(=O)CN3CCOCC3)C/C(=C\c3ccc(OC)c(OC)c3)C2=O)cc1OC.O=C(O)C(F)(F)F` [RUN-112], the “Tox [% of ctrl.]” value in the data set with HEK293 cells (setting [1]) was 81% of ctrl. Further, the fold induction at 5 µM in the data set with NFE2L1 pathway stood at 6.6.
Regarding `COc1ccc(/C=C2\CC(NC(=O)CCN(C)C)C/C(=C\c3ccc(OC)c(OC)c3)C2=O)cc1OC` (stereo not shown) [RUN-101], the “Tox [% of ctrl.]” value with HEK293 cells (setting [1]) was 97% of ctrl. Further, the fold induction at 5 µM in the data set on NFE2L1 pathway worked out at 2.
For the compound `COc1ccc(/C=C2\CC(NC(=O)CN(C)C)C/C(=C\c3ccc(OC)c(OC)c3)C2=O)cc1OC.O=C(O)C(F)(F)F` (stereo not shown) [RUN-86], the “Tox [% of ctrl.]” value in the data set with HEK293 cells (setting [1]) was 96% of ctrl. In the data set on NFE2L1 pathway, the fold induction at 5 µM turned out to be 2.
For `CCOC(=O)CNC(=O)N1C/C(=C\c2ccc(OC)c(OC)c2)C(=O)/C(=C/c2ccc(OC)c(OC)c2)C1` [RUN-74], in the data set with HEK293 cells (setting [1]), the “Tox [% of ctrl.]” value was 81% of ctrl. Further, in the data set with NFE2L1 pathway, the fold induction at 5 µM came out at 7.1.
In the case of `COc1ccc(/C=C2\CN(C(=O)c3ncccc3C)C/C(=C\c3ccc(OC)c(OC)c3)C2=O)cc1OC` [RUN-107], in the data set with HEK293 cells (setting [1]), the “Tox [% of ctrl.]” value was 73%* % of ctrl. Besides, the fold induction at 5 µM with NFE2L1 pathway worked out at 5.
On to `COCCOCCOCC(=O)N1C/C(=C\c2ccc(OC)c(OC)c2)C(=O)/C(=C/c2ccc(OC)c(OC)c2)C1` [RUN-82], for which, in the data set on HEK293 cells (setting [1]), the “Tox [% of ctrl.]” value is 85% of ctrl. Besides, the fold induction at 5 µM in the data set on NFE2L1 pathway was 3.2.
